Patent US12077503B2, “Substituted cyclic amides and their use as herbicides” (FMC CORPORATION, priority 2015, dated 2024)

Assays:
Type in all cases: in vivo
[1] = test system: barnyardgrass (Echinochloa crus-galli); assay: Test G Pre-Emergence Protocol; settings: Echinochloa crus-galli, pre-emergence, 312 h, evaluated after 13 days
Summary of the method: (§1)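 Test compound in 0.5% Tween 20 acetone/water (50:50) was applied at three rates (15.625, 62.5, 250 g/ha) to soil sown one day earlier. After 13 days plants were scored for injury, where 0 means unaffected and 100 means completely damaged.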

[2] = test system: corn (Zea mays); assay: Test G Pre-Emergence Protocol; settings: Zea mays, pre-emergence, 312 h, evaluated after 13 days
Summary of the method: as §1

[3] = test system: giant foxtail (Setaria faberi); assay: Test G Pre-Emergence Protocol; settings: Setaria faberi, pre-emergence, 312 h, evaluated after 13 days
Summary of the method: as §1

[4] = test system: ivy-leaved morning glory (Ipomoea hederacea); assay: Test G Pre-Emergence Protocol; settings: Ipomoea, pre-emergence, 312 h, evaluated after 13 days
Summary of the method: as §1

[5] = test system: redroot pigweed (Amaranthus retroflexus); assay: Test G Pre-Emergence Protocol; settings: Amaranthus retroflexus, pre-emergence, 312 h, evaluated after 13 days
Summary of the method: as §1

[6] = test system: velvetleaf (Abutilon theophrasti); assay: Test G Pre-Emergence Protocol; settings: Abutilon theophrasti, pre-emergence, 312 h, evaluated after 13 days
Summary of the method: as §1

[7] = test system: barnyardgrass (Echinochloa crus-galli); assay: Test G Post-Emergence Protocol; settings: Echinochloa crus-galli, post-emergence, 312 h
Summary of the method: (§2)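 Scores run 0 (no damage) to 100 (total damage) and were taken 13 days after spraying. Plants had been raised in pots for 8 days under glasshouse control (24/16 °C, 14 h photoperiod, 65% humidity) and then treated at 15.625, 62.5 or 250 g/ha.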

[8] = test system: corn (Zea mays); assay: Test G Post-Emergence Protocol; settings: Zea mays, post-emergence, 312 h
Summary of the method: as §2

[9] = test system: giant foxtail (Setaria faberi); assay: Test G Post-Emergence Protocol; settings: Setaria faberi, post-emergence, 312 h
Summary of the method: as §2

[10] = test system: ivy-leaved morning glory (Ipomoea hederacea); assay: Test G Post-Emergence Protocol; settings: Ipomoea, post-emergence, 312 h
Summary of the method: as §2

[11] = test system: redroot pigweed (Amaranthus retroflexus); assay: Test G Post-Emergence Protocol; settings: Amaranthus retroflexus, post-emergence, 312 h
Summary of the method: as §2

[12] = test system: velvetleaf (Abutilon theophrasti); assay: Test G Post-Emergence Protocol; settings: Abutilon theophrasti, post-emergence, 312 h
Summary of the method: as §2

## CN1C[C@H](c2ccc(C(F)(F)F)cc2)[C@@H](C(=O)Nc2ccc(F)cc2[N+](=O)[O-])C1=O (racemic) [Compound 1425]
[1]; 15.625 g ai/ha, read-out: Barnyard grass damage rating (100=total damage to plant; 0=no damage to plant)
  pest or weed control at 15.625 g/ha: 0%
[1]; 62.5 g ai/ha, 100=total damage to plant, 0=no damage to plant, read-out: plant damage rating, Barnyardgrass
  pest or weed control at 62.5 g/ha: 40%
[1]; 250 g ai/ha, read-out: Barnyardgrass damage rating (100=total damage to plant; 0=no damage to plant)
  pest or weed control at 250 g/ha: 60%
[2]; 15.625 g ai/ha, read-out: Corn damage rating (100=total damage to plant; 0=no damage to plant)
  plant injury at 15.625 g/ha: 0%
[2]; 62.5 g ai/ha, 100=total damage to plant, 0=no damage to plant, read-out: plant damage rating, Corn
  plant injury at 62.5 g/ha: 0%
[2]; 250 g ai/ha, read-out: Corn damage rating (100=total damage to plant; 0=no damage to plant)
  plant injury at 250 g/ha: 0%
[3]; 15.625 g ai/ha, read-out: Foxtail, Giant damage rating (100=total damage to plant; 0=no damage to plant)
  pest or weed control at 15.625 g/ha: 10%
[3]; 62.5 g ai/ha, 100=total damage to plant, 0=no damage to plant, read-out: plant damage rating, Foxtail, Giant
  pest or weed control at 62.5 g/ha: 80%
[3]; 250 g ai/ha, read-out: Foxtail, Giant damage rating (100=total damage to plant; 0=no damage to plant)
  pest or weed control at 250 g/ha: 80%
[4]; 15.625 g ai/ha, read-out: Morning-glory, Ivy-leaved damage rating (100=total damage to plant; 0=no damage to plant)
  pest or weed control at 15.625 g/ha: 0%
[4]; 62.5 g ai/ha, 100=total damage to plant, 0=no damage to plant, read-out: plant damage rating, Morningglory, Ivy-leaved
  pest or weed control at 62.5 g/ha: 0%
[4]; 250 g ai/ha, read-out: Morningglory, Ivy-leaved damage rating (100=total damage to plant; 0=no damage to plant)
  pest or weed control at 250 g/ha: 0%
[5]; 15.625 g ai/ha, read-out: Pigweed, Redroot damage rating (100=total damage to plant; 0=no damage to plant)
  pest or weed control at 15.625 g/ha: 0%
[5]; 62.5 g ai/ha, 100=total damage to plant, 0=no damage to plant, read-out: plant damage rating, Pigweed, Redroot
  pest or weed control at 62.5 g/ha: 0%
[5]; 250 g ai/ha, read-out: Pigweed, Redroot damage rating (100=total damage to plant; 0=no damage to plant)
  pest or weed control at 250 g/ha: 0%
[6]; 15.625 g ai/ha, read-out: Velvetleaf damage rating (100=total damage to plant; 0=no damage to plant)
  pest or weed control at 15.625 g/ha: 0%
[6]; 62.5 g ai/ha, 100=total damage to plant, 0=no damage to plant, read-out: plant damage rating, Velvetleaf
  pest or weed control at 62.5 g/ha: 0%
[6]; 250 g ai/ha, read-out: Velvetleaf damage rating (100=total damage to plant; 0=no damage to plant)
  pest or weed control at 250 g/ha: 0%
[7]; 15.625 g ai/ha, evaluated after 13 days (100=total damage to plant; 0=no damage to plant), read-out: Barnyardgrass damage rating
  pest or weed control at 15.625 g/ha: 0%
[7]; 62.5 g ai/ha, evaluated after 13 days, read-out: Barnyardgrass damage rating (100=total damage to plant; 0=no damage to plant)
  pest or weed control at 62.5 g/ha: 20%
[7]; 250 g ai/ha, evaluated after 13 days, read-out: damage to plant, Barnyardgrass (100=total damage to plant; 0=no damage to plant)
  pest or weed control at 250 g/ha: 20%
[8]; 15.625 g ai/ha, evaluated after 13 days (100=total damage to plant; 0=no damage to plant), read-out: Corn damage rating
  plant injury at 15.625 g/ha: 10%
[8]; 62.5 g ai/ha, evaluated after 13 days, read-out: Corn damage rating (100=total damage to plant; 0=no damage to plant)
  plant injury at 62.5 g/ha: 10%
[8]; 250 g ai/ha, evaluated after 13 days, read-out: damage to plant, Corn (100=total damage to plant; 0=no damage to plant)
  plant injury at 250 g/ha: 10%
[9]; 15.625 g ai/ha, evaluated after 13 days (100=total damage to plant; 0=no damage to plant), read-out: Foxtail, Giant damage rating
  pest or weed control at 15.625 g/ha: 10%
[9]; 62.5 g ai/ha, evaluated after 13 days, read-out: Foxtail, Giant damage rating (100=total damage to plant; 0=no damage to plant)
  pest or weed control at 62.5 g/ha: 40%
[9]; 250 g ai/ha, evaluated after 13 days, read-out: damage to plant, Foxtail, Giant (100=total damage to plant; 0=no damage to plant)
  pest or weed control at 250 g/ha: 50%
[10]; 15.625 g ai/ha, evaluated after 13 days (100=total damage to plant; 0=no damage to plant), read-out: Morningglory, Ivy-leaved damage rating
  pest or weed control at 15.625 g/ha: 0%
[10]; 62.5 g ai/ha, evaluated after 13 days, read-out: Morningglory, Ivy-leaved damage rating (100=total damage to plant; 0=no damage to plant)
  pest or weed control at 62.5 g/ha: 0%
[10]; 250 g ai/ha, evaluated after 13 days, read-out: damage to plant, Morningglory, Ivy-leaved (100=total damage to plant; 0=no damage to plant)
  pest or weed control at 250 g/ha: 0%
[11]; 15.625 g ai/ha, evaluated after 13 days (100=total damage to plant; 0=no damage to plant), read-out: Pigweed, Redroot damage rating
  pest or weed control at 15.625 g/ha: 20%
[11]; 62.5 g ai/ha, evaluated after 13 days, read-out: Pigweed, Redroot damage rating (100=total damage to plant; 0=no damage to plant)
  pest or weed control at 62.5 g/ha: 30%
[11]; 250 g ai/ha, evaluated after 13 days, read-out: damage to plant, Pigweed, Redroot (100=total damage to plant; 0=no damage to plant)
  pest or weed control at 250 g/ha: 40%
[12]; 15.625 g ai/ha, evaluated after 13 days (100=total damage to plant; 0=no damage to plant), read-out: Velvetleaf damage rating
  pest or weed control at 15.625 g/ha: 0%
[12]; 62.5 g ai/ha, evaluated after 13 days, read-out: Velvetleaf damage rating (100=total damage to plant; 0=no damage to plant)
  pest or weed control at 62.5 g/ha: 0%
[12]; 250 g ai/ha, evaluated after 13 days, read-out: damage to plant, Velvetleaf (100=total damage to plant; 0=no damage to plant)
  pest or weed control at 250 g/ha: 0%
